# Data as given in patent US7335248B2, “Marine antifouling coating compositions” (Novus International, Inc., priority 2005, dated 2008).
# Where “and” joins values, the source holds several entries; their conditions need not be identical. Identical values can stand only once.
# Columns and labels:
# barnacle cyprids = assay: Barnacle cyprid settlement assay (method of Rittschof et al.), EC50 by probit analysis; type: in vivo, Balanus amphitrite amphitrite
# Protocol: In this case, the defined effect is that the cyprids have not settled and have not attached to the Petri dish. Thus, in the attached data set, the “set” column indicates the total number of cyprid larvae that have settled and attached on the surface of the Petri dish and “non-set” indicates the total number of cyprids that remain swimming in the seawater and have not settled on the surface of the Petri dish.
# Briefly, the barnacle adults are cultured in the laboratory and allowed to spawn naturally. The larvae are harvested and grown in artificial culture systems until they reach the cyprid stage at which time the larvae become competent to attach to surfaces. Once attached, the cyprids transform into a pinhead barnacle, thus becoming permanently attached to the surface. Rittschof D, Clare A S, Gerhart D J, Avelin Mary, Bonavetura J (1991) Barnacle in vitro assays for biologically active substances: toxicity and settlement assays using mass cultured Balanus amphitrite amphitrite Darwin. Biofouling (1992) 6:115-122.
# (§1) Five replicates (e.g., a-e) for each concentration and the control were collected.
# barnacles [1] = assay: Six month static immersion fouling test of painted PVC panels (open ocean, Tuticorin, India); type: in vivo; details: for Total barnacle Count: both duplicate panels; for Mean ± SD (barnacle count): four panel surfaces; for efficacy / barnacle settlement: copper self-polishing and metal-free ablative coatings, six months of exposure
# Excerpt: The reported data were extracted from the raw data as described below, and are shown as total barnacle counts for both duplicate panels of each test formulation. In Table 4, the mean and standard deviation of the data derived from the four panels' surfaces of the duplicate panels for each group. The barnacle counts along the edges were not considered in this evaluation because of the expected uneven coating and inherent tendency of barnacles to first attach to edges. In addition, coatings along the edges can be easily damaged or uneven. Thus, for evaluation purposes only the coated surfaces of the flat areas were considered for this evaluation.
# Zinc Omadine was used as the positive control for this series of tests. It is important to note here that fouling is continuous throughout the year at the Tuticorin, India site and the degree of settlement is generally the same for the same coating system.
# barnacles [2] = assay: Nine month static immersion testing in the Indian Ocean; type: in vivo; details: 9-month static immersion
# Excerpt: Table 5 summarizes the anti-fouling data from the nine-month immersion test, performed as described above for the six month tests.
# [3] = Solubility in seawater at the levels added in the cyprid assay; type: physicochemical; details: at the levels added (up to 0.1 mg/ml)
# Excerpt: as §1
# [4] = 1e-5 mg/ml, Total of five replicates
# [5] = 1e-4 mg/ml, Total of five replicates
# [6] = 0.001 mg/ml, Total of five replicates
# [7] = 0.01 mg/ml, Total of five replicates
# [8] = 0.1 mg/ml, Total of five replicates
# [9] = CUAB coating, 1% (w/w), 6 months
# [10] = CUAB coating, 3% (w/w), 6 months
# [11] = CUAB coating, 5% (w/w), 6 months
# [12] = CUAB coating, 10% (w/w), 6 months
# [13] = CUSP coating, 1% (w/w), 6 months
# [14] = CUSP coating, 3% (w/w), 6 months
# [15] = CUSP coating, 5% (w/w), 6 months
# [16] = CUSP coating, 10% (w/w), 6 months
# [17] = MFAB coating, 1% (w/w), 6 months
# [18] = MFAB coating, 3% (w/w), 6 months
# [19] = MFAB coating, 5% (w/w), 6 months
# [20] = MFAB coating, 10% (w/w), 6 months
structure (smiles),measurement,setting,value
"CSCCC(O)C(=O)[O-].CSCCC(O)C(=O)[O-].[Cu+2] (stereo not shown) [HMTBA-Cu, copper 2-hydroxy-4-methylthiobutanoate chelate]",% of set,barnacle cyprids; [4],74%
same,Non set,barnacle cyprids; [4],86
same,Set,barnacle cyprids; [4],241
same,% of set,"barnacle cyprids; 1e-5 mg/ml, single replicate",77% and 70% and 74% and 68% and 82%
same,Non set,"barnacle cyprids; 1e-5 mg/ml, single replicate",14 and 21 and 15 and 25 and 11
same,Set,"barnacle cyprids; 1e-5 mg/ml, single replicate",46 and 48 and 42 and 54 and 51
same,% of set,barnacle cyprids; [5],71%
same,Non set,barnacle cyprids; [5],89
same,Set,barnacle cyprids; [5],213
same,% of set,"barnacle cyprids; 1e-4 mg/ml, single replicate",66% and 79% and 63% and 73% and 72%
same,Non set,"barnacle cyprids; 1e-4 mg/ml, single replicate",11 and 12 and 29 and 16 and 21
same,Set,"barnacle cyprids; 1e-4 mg/ml, single replicate",21 and 46 and 49 and 43 and 54
same,% of set,barnacle cyprids; [6],53%
same,Non set,barnacle cyprids; [6],155
same,Set,barnacle cyprids; [6],173
same,% of set,"barnacle cyprids; 0.001 mg/ml, single replicate",46% and 56% and 42% and 55% and 65%
same,Non set,"barnacle cyprids; 0.001 mg/ml, single replicate",27 and 34 (2×) and 42 and 18
same,Set,"barnacle cyprids; 0.001 mg/ml, single replicate",23 and 44 and 31 and 41 and 34
same,appearance and swimming behavior of cyprids,barnacle cyprids; 0.01 mg/ml and higher (so in the source),no adverse effects
same,% of set,barnacle cyprids; [7],10%
same,Non set,barnacle cyprids; [7],285
same,Set,barnacle cyprids; [7],30
same,% of set,"barnacle cyprids; 0.01 mg/ml, single replicate",9% and 6% and 8% (2×) and 24%
same,Non set,"barnacle cyprids; 0.01 mg/ml, single replicate",79 and 66 and 59 and 25 and 56
same,Set,"barnacle cyprids; 0.01 mg/ml, single replicate",8 (2×) and 4 and 5 (2×)
same,toxic effects on the cyprids,barnacle cyprids; 0.1 mg per ml,death of all cyprids
same,% of set,barnacle cyprids; [8],0%
same,Non set,barnacle cyprids; [8],314
same,Set,barnacle cyprids; [8],0
same,% of set,"barnacle cyprids; 0.1 mg/ml, single replicate",0%
same,Non set,"barnacle cyprids; 0.1 mg/ml, single replicate",69 and 94 and 54 and 59 and 38
same,Set,"barnacle cyprids; 0.1 mg/ml, single replicate",0
same,EC50,"barnacle cyprids; barnacle cyprids not settled/attached to Petri dish, probit analysis",1.8 µg/mL
same,inhibition of barnacle cyprid settlement,barnacle cyprids; in vivo,biologically active as inhibitors of barnacle cyprid settlement
same,SLOPE,"barnacle cyprids; probit analysis, barnacle settlement",1.567
same,Total barnacle Count,barnacles [1]; [9],472
same,Mean ± SD (barnacle count),barnacles [1]; [9],118.0 ± 158.0
same,Total barnacle Count,barnacles [1]; [10],170
same,Mean ± SD (barnacle count),barnacles [1]; [10],42.5 ± 21.1
same,Total barnacle Count,barnacles [1]; [11],126
same,Mean ± SD (barnacle count),barnacles [1]; [11],31.4 ± 46.4
same,Total barnacle Count,barnacles [1]; [12],123
same,Mean ± SD (barnacle count),barnacles [1]; [12],30.8 ± 12.9
same,Total barnacle Count,barnacles [1]; [13],4
same,Mean ± SD (barnacle count),barnacles [1]; [13],1.0 ± 1.7
same,Total barnacle Count,barnacles [1]; [14],6
same,Mean ± SD (barnacle count),barnacles [1]; [14],1.5 ± 2.6
same,Total barnacle Count,barnacles [1]; [15],8
same,Mean ± SD (barnacle count),barnacles [1]; [15],2.0 ± 2.4
same,Total barnacle Count,barnacles [1]; [16],9
same,Mean ± SD (barnacle count),barnacles [1]; [16],2.3 ± 1.9
same,Total barnacle Count,barnacles [1]; [17],8
same,Mean ± SD (barnacle count),barnacles [1]; [17],2.0 ± 2.4
same,Total barnacle Count,barnacles [1]; [18],13
same,Mean ± SD (barnacle count),barnacles [1]; [18],3.3 ± 4.5
same,Total barnacle Count,barnacles [1]; [19],11
same,Mean ± SD (barnacle count),barnacles [1]; [19],2.8 ± 4.2
same,Total barnacle Count,barnacles [1]; [20],4
same,Mean ± SD (barnacle count),barnacles [1]; [20],1.0 ± 1.7
same,efficacy / barnacle settlement,barnacles [1],significant efficacy
same,LS MEAN BARNACLES,barnacles [2]; CUSP PAINT,16
same,LS MEAN BARNACLES,barnacles [2]; MFAB PAINT,1.25
same,solubility in seawater,[3],soluble in seawater at the levels added
"[O-][n+]1ccccc1[S-].[O-][n+]1ccccc1[S-].[Zn+2] [Zn Omadine, zinc salt of pyrithione, reference compound]",Total barnacle Count,barnacles [1]; [11],167
same,Mean ± SD (barnacle count),barnacles [1]; [11],41.8 ± 23.3
same,Total barnacle Count,barnacles [1]; [15],33
same,Mean ± SD (barnacle count),barnacles [1]; [15],8.3 ± 4.0
same,Total barnacle Count,barnacles [1]; [19],113
same,Mean ± SD (barnacle count),barnacles [1]; [19],28 ± 15.0
same,barnacle coverage of panels,"barnacles [1]; MFSP coating, 5%, 6 months",fully covered by barnacles
same,efficacy / barnacle settlement,barnacles [1],substantial settlement
"CSCC[C@H](N)C(=O)O.[Zn] [Zn-Methionine, zinc methionine]",LS MEAN BARNACLES,barnacles [2]; CUSP PAINT,0.5
same,LS MEAN BARNACLES,barnacles [2]; MFAB PAINT,8
